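Five compound concentrations were applied to cells in 96-well plates for 48 hours; endpoints were derived by simple linear interpolation of the resulting dose-response curve. At the GI50, growth is halved. TGI is the concentration that stops growth completely.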

Test systems include 786-0 renal; HOP-62 NSCLC; K-562 leukemia; MDA-MB-435; RXF 393 renal; SF-295 CNS; SN12C renal; SR leukemia; U251 CNS; UACC-62 melanoma.
Holding throughout (test): NCI anticancer screen, dose series, 48 h

For `O=c1oc2ccccc2c(Cl)c1Cl`, the GI50 with 786-0 renal is 5.82 µM; with HOP-62 NSCLC it was 3.49 µM; in the assay with K-562 leukemia, 2.63 µM; with MDA-MB-435 it was 3.32 µM; with RXF 393 renal, 1.95 µM; in the assay with SF-295 CNS it was 11.7 µM. In addition, the GI50 was 4.58 µM in the assay on SN12C renal, 2.29 µM with SR leukemia, 2.85 µM with U251 CNS and 4.82 µM in the assay with UACC-62 melanoma. In addition, the TGI with 786-0 renal was 18.7 µM; in the assay on HOP-62 NSCLC, 14.2 µM; in the assay with K-562 leukemia it was greater than 100 µM; in the assay on MDA-MB-435 it was 11.4 µM; with RXF 393 renal, 4.31 µM; with SF-295 CNS it was 28.4 µM. For the same molecule, the TGI was found to be 16.8 µM in the assay with SN12C renal, 65.8 µM in the assay on SR leukemia, 8.86 µM with U251 CNS and 18.1 µM in the assay on UACC-62 melanoma.

Take `COc1cc(-c2cc(C(=O)Nc3nc4ccccc4s3)nc3cc(-c4ccccc4)nn23)cc(OC)c1OC`: the GI50 was 2.59 µM in the assay with 786-0 renal; 9.87 µM with HOP-62 NSCLC; 25.4 µM with K-562 leukemia; 2.61 µM in the assay on MDA-MB-435; 6.22 µM in the assay with RXF 393 renal; 10.6 µM in the assay with SF-295 CNS. Further, the GI50 with SN12C renal is 85.1 µM; in the assay with SR leukemia it was 19.7 µM; with U251 CNS it was 5.14 µM; in the assay on UACC-62 melanoma, 14.4 µM. Also, the TGI in the assay on 786-0 renal was 12.8 µM; with HOP-62 NSCLC, 27.2 µM; in the assay on K-562 leukemia, greater than 100 µM; with MDA-MB-435 it was 40.3 µM; in the assay on RXF 393 renal, 22.1 µM; in the assay with SF-295 CNS it was 32.7 µM. In addition, the TGI in the assay with SN12C renal was greater than 100 µM; in the assay on SR leukemia, 52.5 µM; in the assay with U251 CNS, 32.6 µM; in the assay with UACC-62 melanoma, 80.4 µM.

Take `Nc1nc(SCC(=O)O)[nH]c(=O)c1N`: the TGI with 786-0 renal was greater than 100 µM; in the assay with HOP-62 NSCLC it was greater than 100 µM; in the assay on K-562 leukemia, 36.9 µM; in the assay on MDA-MB-435 it was greater than 100 µM; in the assay on RXF 393 renal, greater than 100 µM; in the assay on SF-295 CNS it was greater than 100 µM. The TGI in the assay on SN12C renal is 30.5 µM; with SR leukemia, 77.7 µM; in the assay with U251 CNS it was greater than 100 µM; in the assay on UACC-62 melanoma, greater than 100 µM.

As for `CCN(Cc1ccc(F)cc1F)c1ccc(CO)c(Cl)c1`, the GI50 was 5.91 µM in the assay with 786-0 renal; 1.84 µM in the assay on HOP-62 NSCLC; 1.65 µM with K-562 leukemia; 21 µM in the assay on MDA-MB-435; 2.26 µM in the assay on RXF 393 renal; 0.513 µM with SF-295 CNS. Further, the GI50 was 11.2 µM with SN12C renal, 23.2 µM in the assay on SR leukemia, 0.641 µM in the assay on U251 CNS and 0.0981 µM with UACC-62 melanoma. The TGI was 29 µM in the assay with 786-0 renal; 20.2 µM in the assay on HOP-62 NSCLC; greater than 100 µM in the assay with K-562 leukemia; greater than 59.6 µM in the assay with MDA-MB-435; 14.5 µM in the assay on RXF 393 renal; 14.7 µM in the assay on SF-295 CNS. Besides, the TGI is 23.8 µM in the assay with SN12C renal, 82.1 µM in the assay on SR leukemia, 18.8 µM in the assay with U251 CNS and 0.581 µM in the assay with UACC-62 melanoma.

For `Cc1cc(Cl)ccc1NC(=O)/C(Cc1nc2ccc(C(=O)c3ccccc3)cc2[nH]c1=O)=N/NC(=O)c1ccncc1`, the TGI in the assay on 786-0 renal, in the assay on HOP-62 NSCLC, in the assay on K-562 leukemia, in the assay with MDA-MB-435, in the assay with RXF 393 renal and in the assay on SF-295 CNS was greater than 100 µM each time. The TGI in the assay with SN12C renal, in the assay on SR leukemia, with U251 CNS and in the assay with UACC-62 melanoma was greater than 100 µM in each case.

Consider `O=C(O)C1CCCN1Cc1c[nH]c2ccccc12` (stereo not given), for which the TGI in the assay with 786-0 renal, in the assay on HOP-62 NSCLC, in the assay with K-562 leukemia, in the assay with MDA-MB-435, with RXF 393 renal and with SF-295 CNS was greater than 100 µM each time. In addition, the TGI in the assay on SN12C renal, with SR leukemia, in the assay with U251 CNS and in the assay on UACC-62 melanoma was greater than 100 µM throughout.

`O=P(Oc1ccccc1)(Oc1ccccc1)C(O)c1ccccc1` (stereo not given): the GI50 is greater than 100 µM in the assay on 786-0 renal; 39.3 µM in the assay on HOP-62 NSCLC; 46.8 µM with K-562 leukemia; 74 µM with MDA-MB-435; 60.6 µM in the assay on RXF 393 renal; 29.3 µM with SF-295 CNS. Besides, the GI50 in the assay on SN12C renal was greater than 100 µM; in the assay on SR leukemia, 62.3 µM; with U251 CNS, 48.9 µM; in the assay on UACC-62 melanoma it was 44.8 µM. In addition, the TGI with 786-0 renal, in the assay with HOP-62 NSCLC, in the assay on K-562 leukemia, in the assay on MDA-MB-435, in the assay on RXF 393 renal and in the assay on SF-295 CNS was greater than 100 µM each time. Also, the TGI in the assay with SN12C renal, in the assay with SR leukemia, with U251 CNS and in the assay with UACC-62 melanoma was greater than 100 µM each time.

As to `CCN(CC)c1ccc2[nH]c3c(C(N)=O)cc(=O)c(=O)c=3oc2c1`, the GI50 in the assay on 786-0 renal is 2.42 µM; with HOP-62 NSCLC it was 0.445 µM; in the assay on K-562 leukemia, 1.93 µM; in the assay on MDA-MB-435 it was 0.377 µM; in the assay with RXF 393 renal, 1.37 µM; in the assay with SF-295 CNS it was 1.57 µM. For the same molecule, the GI50 was 2.09 µM in the assay with SN12C renal, 2.84 µM with SR leukemia, 0.912 µM in the assay with U251 CNS and 1.59 µM with UACC-62 melanoma. The TGI is greater than 100 µM with 786-0 renal; 15.4 µM in the assay with HOP-62 NSCLC; greater than 100 µM with K-562 leukemia; 9.78 µM in the assay with MDA-MB-435; 6.39 µM with RXF 393 renal; 6.35 µM with SF-295 CNS. Moreover, the TGI in the assay on SN12C renal is greater than 100 µM; with SR leukemia, 8.74 µM; in the assay on U251 CNS, 5.75 µM; in the assay with UACC-62 melanoma, 4.75 µM.

For `COc1cccc(-c2nc(-c3ccc(NS(=O)(=O)c4ccccc4)cc3)[nH]c2-c2ccnc(Br)c2)c1`, the GI50 in the assay on 786-0 renal was 2.98 µM; with HOP-62 NSCLC, 3.39 µM; in the assay with K-562 leukemia, 2.6 µM; in the assay with MDA-MB-435, 2.51 µM; in the assay with RXF 393 renal, 2.18 µM; in the assay with SF-295 CNS, 1.85 µM. For the same molecule, the GI50 in the assay with SN12C renal is 3.03 µM; in the assay on SR leukemia, 2.85 µM; with U251 CNS, 2.73 µM; in the assay with UACC-62 melanoma it was 2.58 µM. For the same molecule, the TGI with 786-0 renal is greater than 100 µM; in the assay on HOP-62 NSCLC it was greater than 100 µM; with K-562 leukemia it was greater than 100 µM; with MDA-MB-435 it was 9.21 µM; with RXF 393 renal it was 5.73 µM; in the assay on SF-295 CNS it was 4.35 µM. The TGI in the assay with SN12C renal was greater than 100 µM; in the assay with SR leukemia it was greater than 100 µM; in the assay on U251 CNS it was greater than 100 µM; in the assay with UACC-62 melanoma, 8.56 µM.

These data come from PubChem BioAssay (NCI).
